We go through one molecule from patent publication US11185588B2, “Pharmaceutical dosage forms comprising valganciclovir hydrochloride” (Hoffmann-La Roche Inc., priority 2006, dated 2021).

SMILES strings stand for the structures. A value given as a limit tells only on which side of the number the result lay.

Data set [1] in a line: pH dependence of stability in aqueous solution. The class given is physicochemical. The conditions noted are these: monohydrochloride. The protocol:
(§1) The solubility of valganciclovir hydrochloride (active pharmaceutical ingredient, API) in aqueous solution is pH dependent. […] Valganciclovir hydrochloride is freely soluble under acidic conditions with a maximum solubility of greater than 200 mg/mL in the pH range of 4-6. The stability of valganciclovir hydrochloride is greatest at a pH<3.8.
The following excipients were used to prepare the formulations of Type I. Citric acid anhydrous was combined with sodium citrate to form the buffer system to ensure an acidic pH. […] Sodium benzoate was used as a preservative agent and sodium saccharin was used as an artificial sweetening agent. Maltose, a crystalline disaccharide carbohydrate, was used as a bulking agent (diluent) and to provide desirable mouth feel and sweetness. Strawberry flavor was used as the flavor of the oral solution.

A short description of another data set: pKa. The class given is physicochemical. As to the method: as §1
Data set [2] is classed as physicochemical. As to conditions: pH 7. As to the method: as §1
The nature of another data set: physchem. The class given is physicochemical. As to the method:
as §1

A short description of data set [3]: Hygroscopicity on exposure to relative humidity. The class given is physicochemical. The conditions noted are these: exposed to 80% relative humidity. The text has this:
Valganciclovir hydrochloride is moderately hygroscopic, with only small changes in moisture observed when the valganciclovir hydrochloride is exposed to moderate relative humidity. A weight gain of up to approximately 3% occurs when the valganciclovir hydrochloride is exposed to 80% relative humidity (for a total moisture content of up to approximately 8%). It is reversibly hygroscopic and will either absorb or release moisture under ambient humidity conditions, depending on the water content of the valganciclovir hydrochloride and the relative humidity.

For orientation: pKa means the negative logarithm of the acid dissociation constant. Usually solubility stands for how much of the substance goes into solution per volume. Low values mean little dissolved substance, high ones much dissolved substance. With `CC(C)[C@H](N)C(=O)OCC(CO)OCn1cnc2c(=O)[nH]c(N)nc21.Cl` (stereo partly drawn) [valganciclovir hydrochloride, L-Valine, 2-[(2-amino-1,6-dihydro-6-oxo-9H-purin-9-yl)methoxy]-3-hydroxypropyl ester, monohydrochloride], the results for the “pH at which stability is greatest” value in data set [1] (listed as valganciclovir) and in data set [1] were ≤ 3.8 and < 3.8, respectively. For the same molecule, the pKa in the data set “pKa” is 7.6. The molecule also displayed a n-octanol/water partition coefficient in data set [2] of 0.0095. The solubility in “physchem” (25 °C, pH 7, water) was 70 mg/mL; in the data set “physchem” (aqueous buffer) it was > 200 mg/mL. In “physchem” (pH 7), this molecule came in with a solubility in water of 70 mg/mL. Moreover, in data set [3], the total moisture content is reported as ≤ 8%. Also, the weight gain in data set [3] was ≤ 3%.
